The structures appear in SMILES notation.

The target in one assay is mouse TRPV1 Y512A mutant (Mus musculus, UniProt Q704Y3, Y512A). In kind it is cell-based. Conditions: saturating concentration for the wildtype channel; whole-cell recording.
Another assay has as its target mouse TRPV1 T551V mutant (Mus musculus, UniProt Q704Y3, T551V). As to the kind of experiment: cell-based. Type of assay: cell-based.
The target in assay [1] is T1, mouse TRPV1 (wildtype) (Mus musculus, UniProt Q704Y3). Nature of the assay: Whole-cell patch-clamp of wild-type TRPV1 in HEK293 cells. In kind it is cell-based. On the technique in general: Patch clamp records ionic current or voltage across a cell membrane.
Another assay addresses mouse TRPV1 E571A mutant (Mus musculus, UniProt Q704Y3, E571A). As to the kind of experiment: Whole-cell patch-clamp of TRPV1 E571A mutant. In kind it is cell-based. Conditions: whole-cell recording.
In assay [2] the target is T1, mouse TRPV1 (wildtype). Conditions: WT channel; cited from earlier work.

mouse TRPV1 T551V mutant, sequence (Q704Y3 whole entry T551V): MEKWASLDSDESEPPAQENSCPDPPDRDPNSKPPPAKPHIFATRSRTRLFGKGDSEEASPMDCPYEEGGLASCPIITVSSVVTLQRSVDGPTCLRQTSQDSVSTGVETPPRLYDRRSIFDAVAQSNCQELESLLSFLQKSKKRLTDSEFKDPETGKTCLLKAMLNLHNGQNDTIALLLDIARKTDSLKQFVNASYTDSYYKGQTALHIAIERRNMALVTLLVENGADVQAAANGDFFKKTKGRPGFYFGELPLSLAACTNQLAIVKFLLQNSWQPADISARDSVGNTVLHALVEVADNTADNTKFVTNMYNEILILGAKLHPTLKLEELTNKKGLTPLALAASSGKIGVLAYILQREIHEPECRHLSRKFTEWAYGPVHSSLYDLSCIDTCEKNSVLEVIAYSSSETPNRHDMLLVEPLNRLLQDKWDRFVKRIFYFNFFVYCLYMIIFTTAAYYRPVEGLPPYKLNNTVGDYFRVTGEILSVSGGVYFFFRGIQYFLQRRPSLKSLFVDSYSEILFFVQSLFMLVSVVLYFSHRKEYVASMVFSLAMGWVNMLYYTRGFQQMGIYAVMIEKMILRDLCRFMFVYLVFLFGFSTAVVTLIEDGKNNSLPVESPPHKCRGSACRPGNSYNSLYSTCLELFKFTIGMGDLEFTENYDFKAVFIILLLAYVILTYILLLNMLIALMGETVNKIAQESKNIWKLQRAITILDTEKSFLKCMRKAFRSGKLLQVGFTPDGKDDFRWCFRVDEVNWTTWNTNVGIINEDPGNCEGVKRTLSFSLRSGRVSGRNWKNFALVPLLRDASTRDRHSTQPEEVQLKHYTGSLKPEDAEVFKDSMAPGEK
T1 sequence (Q704Y3 whole entry): as the sequence (Q704Y3 whole entry T551V) above, with V551T counted along it
mouse TRPV1 E571A mutant, sequence (Q704Y3 whole entry E571A): as the sequence (Q704Y3 whole entry T551V) above, with V551T, E571A counted along it
mouse TRPV1 Y512A mutant, sequence (Q704Y3 whole entry Y512A): as the sequence (Q704Y3 whole entry T551V) above, with Y512A, V551T counted along it

As usually defined, the EC50 is the concentration at which the effect is half-maximal. Higher therefore signals a less potent agent. For `COc1cc(CNC(=O)CCCC/C=C/C(C)C)ccc1O` [capsaicin], the “activation of the Y512A mutant” value on mouse TRPV1 Y512A mutant was “activated”. Further, the “shift of activation to higher concentration, T551V versus wildtype” value on mouse TRPV1 T551V mutant is “about 10 fold”. Also, the response at mouse TRPV1 (wildtype) [1] was half-maximal at 0.146 ± 0.039 µM (EC50). Besides, the “activation of the E571A mutant” value on mouse TRPV1 E571A mutant is listed as “can still activate”.

As to `NCCOB(c1ccccc1)c1ccccc1` [2-APB, 2-aminoethyl diphenylborinate], the “activation of the Y512A mutant” value on mouse TRPV1 Y512A mutant is “largely activated”. Moreover, the “maximum open probability (Po_max)” value on mouse TRPV1 (wildtype) [2] is approximately 100%.

For `CCCCCCCC/C=C\CCCCCCCC(=O)NCCc1ccc(O)c(O)c1` [OLDA, N-oleoyldopamine], the EC50 amounted to 0.54 ± 0.14 µM at mouse TRPV1 T551V mutant and 0.29 ± 0.08 µM on mouse TRPV1 (wildtype) [1]. Further, the “activation of the E571A mutant” value at mouse TRPV1 E571A mutant is on record as “barely opened”.

As to `CCCCC/C=C\C/C=C\C/C=C\C/C=C\CCCC(=O)NCCO` [AEA, anandamide], the concentration for a half-maximal effect (EC50) stood at 4.88 ± 0.78 µM at mouse TRPV1 T551V mutant and 6.02 ± 1.23 µM at mouse TRPV1 (wildtype) [1]. Besides, on mouse TRPV1 E571A mutant, the “activation of the E571A mutant” value is reported as “barely opened”.

(Values after paper PMC8387766 (The Journal of Biological Chemistry, 2021).)
